This passage reports IC50 results from US20110190503A1, “Thiazolopyridin-2-yloxy-phenyl and thiazolopyrazin-2-yloxy-phenyl amines as modulators of leukotriene A4 hydrolase” (Janssen Pharmaceutical NV, priority 2008, published 2011).

Counter-ions that a name gives are not always drawn. Where only a bound is given, the exact number is not on record here.

This experiment concerns the target T1, recombinant human LTA4 hydrolase (rhLTA4H) (Homo sapiens, UniProt P09960).
T1 construct: made in house; host or cells: Spodoptera frugiperda (Sf-9) cells, recombinant baculovirus (pFastBac1)
T1 sequence (P09960 1-611): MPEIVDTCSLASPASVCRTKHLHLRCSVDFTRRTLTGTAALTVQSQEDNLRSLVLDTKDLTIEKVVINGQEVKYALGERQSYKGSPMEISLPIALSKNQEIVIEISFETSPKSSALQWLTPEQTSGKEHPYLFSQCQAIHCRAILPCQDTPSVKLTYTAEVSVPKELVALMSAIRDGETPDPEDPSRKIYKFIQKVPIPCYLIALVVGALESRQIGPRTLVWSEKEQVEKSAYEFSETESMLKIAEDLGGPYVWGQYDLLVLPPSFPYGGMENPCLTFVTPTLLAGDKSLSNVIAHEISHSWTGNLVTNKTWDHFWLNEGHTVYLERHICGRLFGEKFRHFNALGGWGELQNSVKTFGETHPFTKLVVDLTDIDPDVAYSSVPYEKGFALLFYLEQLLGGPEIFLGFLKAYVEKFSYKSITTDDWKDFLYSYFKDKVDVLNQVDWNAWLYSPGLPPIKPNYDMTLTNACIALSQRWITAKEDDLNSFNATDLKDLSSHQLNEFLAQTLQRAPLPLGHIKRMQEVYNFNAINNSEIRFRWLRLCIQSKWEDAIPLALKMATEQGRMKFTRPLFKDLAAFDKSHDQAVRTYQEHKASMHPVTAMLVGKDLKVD
The experiment can be described thus: Recombinant human LTA4 hydrolase assay for LTA4 hydrolase inhibitor activity. The class given is biochemical. As to conditions: rhLTA4H, LTA4 substrate, LTB4 by immunoassay; single determination or average; read-out: IC50. The method, then:
Assay 1: Recombinant Human LTA4 Hydrolase Assay for LTA4 Hydrolase Inhibitor Activity
Compounds of the present invention were tested for LTA4 hydrolase inhibitor activity against recombinant human LTA4 hydrolase (rhLTA4H). Vectors were prepared and used to express rhLTA4H essentially as follows: LTA4 hydrolase encoding DNA was amplified by polymerase chain reaction (PCR) using a human placental cDNA library as a template. […] The amplified 1.9 kb DNA fragment encoding LTA4 hydrolase was isolated and cloned into the pFastBac1 vector (Invitrogen). Recombinant baculovirus was generated as described by the manufacturer, and used to infect Spodoptera frugiperda (Sf-9) cells. […] The purified enzyme solution was adjusted to contain 0.29 mg/mL LTA4 hydrolase, 50 mM Tris (pH 8.0), 150 mM NaCl, 5 mM dithiothreitol, 50% glycerol, and EDTA-free Complete protease inhibitor cocktail (Roche).
LTA4 substrate was prepared from the methyl ester of LTA4 (Cayman Chemical) by treatment with 67 equiv of NaOH under nitrogen at rt for 40 min. The LTA4 substrate in its free acid form was kept frozen at −80° C. until needed. Each compound was diluted to different concentrations in assay buffer (from Assay Designs) containing 10% DMSO. A 25-μL aliquot of each compound dilution was incubated for 10 min at rt with an equal volume of assay buffer containing 10 ng of recombinant human LTA4H. The solution was then adjusted to 200 μL with assay buffer. […] Each reaction was carried out at rt for 30 min. The reaction was stopped by diluting 10 μL of the reaction mixture with 200 μL of assay buffer. LTB4 was quantified in the diluted sample by a commercially available enzyme-linked immunoassay (Cayman Chemical Co.), as recommended by the manufacturer. Positive controls, under essentially identical conditions but without addition of an inhibitor compound, and negative controls, containing all assay components except enzyme, were routinely run in each experiment. IC50 values were determined by nonlinear regression of the activity data at different compound concentrations using Graphpad Prism 4.0, one site binding competition.
The values presented here are the result of a single determination or an average of two or more determinations, as indicated in parentheses following each value. For compounds tested three or more times, the average value is followed by the standard deviation
The term IC50 denotes the concentration that inhibits the measured activity by half. As to `Cc1cnc2nc(Oc3ccc(CCN4CCC(C(=O)N5CCCC5)CC4)cc3)sc2c1` [Example 198, 6-Methyl-2-[(4-{2-[4-(pyrrolidin-1-ylcarbonyl)piperidin-1-yl]ethyl}phenyl)oxy][1,3]thiazolo[4,5-b]pyridine], the IC50 was found to be 175 nM.

`NC(=O)N1C[C@H]2C[C@@H]1CN2Cc1ccc(Oc2nc3ncc(Cl)cc3s2)cc1` [Example 191, (1R,4R)-5-({4-[(6-Chloro[1,3]thiazolo[4,5-b]pyridin-2-yl)oxy]phenyl}methyl)-2,5-diazabicyclo[2.2.1]heptane-2-carboxamide]: the IC50 turned out to be 72 nM.

With `O=C(O)CCN1CCN(CCc2ccc(Oc3nc4ncccc4s3)cc2)CC1` [Example 225, 3-(4-{2-[4-([1,3]Thiazolo[4,5-b]pyridin-2-yloxy)phenyl]ethyl}piperazin-1-yl)propanoic acid hydrochloride], the IC50 was 21 nM.

Regarding `O=C(Cc1cccs1)N1CCN(Cc2ccc(Oc3nc4nccnc4s3)cc2)CC1` [Example 173, 2-[(4-{[4-(2-Thienylacetyl)piperazin-1-yl]methyl}phenyl)oxy][1,3]thiazolo[4,5-b]pyrazine], the IC50 was 388 nM.

For the compound `OCCCN(CCOc1ccc(Oc2nc3ccncc3s2)cc1)C1CC1` [Example 208, 3-(Cyclopropyl{2-[4-([1,3]thiazolo[5,4-c]pyridin-2-yloxy)phenoxy]ethyl}amino)propan-1-ol], the half-maximal inhibitory concentration (IC50) amounted to 3900 nM.

With `CN1CCN(C(=O)C2CCN(Cc3ccc(Oc4nc5ccncc5s4)cc3)CC2)CC1` [Example 227, 2-[4-({4-[(4-Methylpiperazin-1-yl)carbonyl]piperidin-1-yl}methyl)phenoxy][1,3]thiazolo[5,4-c]pyridine], the IC50 came out at 748 nM.

Take `CC(=O)N1C[C@@H]2C[C@H]1CN2CCOc1ccc(Oc2nc3cccnc3s2)cc1` [Example 20, 2-(4-{2-[(1S,4S)-5-Acetyl-2,5-diazabicyclo[2.2.1]hept-2-yl]ethoxy}phenoxy)[1,3]thiazolo[5,4-b]pyridine]: the IC50 turned out to be 130 nM.

Regarding `O=C(c1ccc(Cl)cc1)C1CCN(CCc2ccc(Oc3nc4cnccc4s3)cc2)CC1` [Example 195, (4-Chlorophenyl)(1-{2-[4-([1,3]thiazolo[4,5-c]pyridin-2-yloxy)phenyl]ethyl}piperidin-4-yl)methanone], the IC50 is 1370 nM.

With `O=C(O)CN(Cc1ccccc1)Cc1ccc(Oc2nc3ncccc3s2)cc1` [Example 274, N-Benzyl-N-[4-([1,3]thiazolo[4,5-b]pyridin-2-yloxy)benzyl]glycine], the IC50 was 919 nM.

Take `Cc1cnc2nc(Oc3ccc(OCCN4CCC(C(=O)N5CCOCC5)CC4)cc3)sc2c1` [Example 145, 6-Methyl-2-(4-{2-[4-(morpholin-4-ylcarbonyl)piperidin-1-yl]ethoxy}phenoxy)[1,3]thiazolo[4,5-b]pyridine]: the IC50 stood at 275 nM.

`CCC(=O)NC1CCN(Cc2ccc(Oc3nc4cccnc4s3)cc2)CC1` [Example 219, N-{1-[4-([1,3]Thiazolo[5,4-b]pyridin-2-yloxy)benzyl]piperidin-4-yl}propanamide]: the IC50 was found to be 276 nM.

Take `O=C1CCCN1C1CCN(CCOc2ccc(Oc3nc4ccncc4s3)cc2)CC1` [Example 144, 1-(1-{2-[4-([1,3]Thiazolo[5,4-c]pyridin-2-yloxy)phenoxy]ethyl}piperidin-4-yl)pyrrolidin-2-one]: the IC50 was determined as 350 nM.

Take `c1ccc(OC2CCN(CCOc3ccc(Oc4nc5ncccc5s4)cc3)CC2)cc1` [Example 8, 2-{4-[2-(4-Phenoxypiperidin-1-yl)ethoxy]phenoxy}[1,3]thiazolo[4,5-b]pyridine]: the IC50 is 130 nM.

As to `CS(=O)(=O)N1C[C@H]2C[C@@H]1CN2CCOc1ccc(Oc2nc3ccncc3s2)cc1` [Example 151, 2-(4-{2-[(1R,4R)-5-(Methylsulfonyl)-2,5-diazabicyclo[2.2.1]hept-2-yl]ethoxy}phenoxy)[1,3]thiazolo[5,4-c]pyridine], the IC50 came out at 367 nM.

Turning to `Clc1ccc(SC2CCN(CCOc3ccc(Oc4nc5ncccc5s4)cc3)CC2)cc1` [Example 136, 2-[4-(2-{4-[(4-Chlorophenyl)sulfanyl]piperidin-1-yl}ethoxy)phenoxy][1,3]thiazolo[4,5-b]pyridine], the IC50 was 427 nM.

With `NC(=O)N1CC2CN(CCc3ccc(Oc4nc5ccncc5s4)cc3)CC2C1` (stereo not drawn) [Example 246, 5-{2-[4-([1,3]Thiazolo[5,4-c]pyridin-2-yloxy)phenyl]ethyl}hexahydropyrrolo[3,4-c]pyrrole-2(1H)-carboxamide], the IC50 is 331 nM.

In the case of `NC(=O)N1[C@@H]2CC[C@H]1C[C@H](NCc1ccc(Oc3nc4cccnc4s3)cc1)C2` [Example 201, meso-(3-exo)-3-{[4-([1,3]Thiazolo[5,4-b]pyridin-2-yloxy)benzyl]amino}-8-azabicyclo[3.2.1]octane-8-carboxamide], the IC50 is 891 nM.

`CC(=O)N1C[C@@H]2C[C@H]1CN2CCc1ccc(Oc2nc3cccnc3s2)cc1` [Example 51, 2-(4-{2-[(1S,4S)-5-Acetyl-2,5-diazabicyclo[2.2.1]hept-2-yl]ethyl}phenoxy)[1,3]thiazolo[5,4-b]pyridine]: the IC50 was determined as 110 nM.

Consider `CNC(=O)C1CCN(CCOc2ccc(Oc3nc4nccc(C)c4s3)cc2)CC1` [Example 165, N-Methyl-1-[2-({4-[(7-methyl[1,3]thiazolo[4,5-b]pyridin-2-yl)oxy]phenyl}oxy)ethyl]piperidine-4-carboxamide], for which the concentration for half-maximal inhibition (IC50) was 53 nM.

On to `CC(=O)N1[C@@H]2CC[C@H]1C[C@H](NCCOc1ccc(Oc3nc4ncccc4s3)cc1)C2` [Example 215, meso-(3-exo)-8-Acetyl-N-{2-[4-([1,3]thiazolo[4,5-b]pyridin-2-yloxy)phenoxy]ethyl}-8-azabicyclo[3.2.1]octan-3-amine hydrochloride], for which the IC50 stood at 21 nM.

Turning to `CCOC(=O)CN(Cc1ccccc1)Cc1ccc(Oc2nc3ncccc3s2)cc1` [Example 273, Ethyl N-benzyl-N-[4-([1,3]thiazolo[4,5-b]pyridin-2-yloxy)benzyl]glycinate], the IC50 amounted to 176 nM.

On to `Clc1cnc2nc(Oc3ccc(CCN4CCC(N5CCCCC5)CC4)cc3)sc2c1` [Example 223, 1′-(2-{4-[(6-Chloro[1,3]thiazolo[4,5-b]pyridin-2-yl)oxy]phenyl}ethyl)-1,4′-bipiperidine], for which the IC50 is 563 nM.

For `O=C(c1cccs1)N1CCN(Cc2ccc(Oc3nc4ncc(Cl)cc4s3)cc2)CC1` [Example 187, 6-Chloro-2-[(4-{[4-(2-thienylcarbonyl)piperazin-1-yl]methyl}phenyl)oxy][1,3]thiazolo[4,5-b]pyridine], the IC50 was determined as 290 nM.

On to `CCCN(CCC)CCc1ccc(Oc2nc3cnccc3s2)cc1` [Example 196, N-Propyl-N-{2-[4-([1,3]thiazolo[4,5-c]pyridin-2-yloxy)phenyl]ethyl}propan-1-amine], for which the IC50 came to 87 nM.

As to `Cc1ccnc2sc(Oc3ccc(CN4CCC(C(N)=O)CC4)cc3)nc12` [Example 286, 1-{4-[(7-Methyl[1,3]thiazolo[5,4-b]pyridin-2-yl)oxy]benzyl}piperidine-4-carboxamide], the IC50 was above 10000 nM.

On to `Cc1cnc2nc(Oc3ccc(CN4CCC(NC(=O)c5cccs5)CC4)cc3)sc2c1` [Example 220, N-(1-{4-[(6-Methyl[1,3]thiazolo[4,5-b]pyridin-2-yl)oxy]benzyl}piperidin-4-yl)thiophene-2-carboxamide], for which the IC50 was found to be 109 nM.

Regarding `O=C(c1ccco1)N1CCN(CCOc2ccc(Oc3nc4ncc(Cl)cc4s3)cc2)CC1` [Example 147, 6-Chloro-2-(4-{2-[4-(furan-2-ylcarbonyl)piperazin-1-yl]ethoxy}phenoxy)[1,3]thiazolo[4,5-b]pyridine], the IC50 stood at 252 nM.
